According to patent US20200255807A1, “IN VITRO PROPAGATION OF PRIMARY CANCER CELLS” (University of Cape Town, priority 2017, published 2020):

B1: Papain: protease enzyme (10 mg/ml) added with collagenase II to the isolation buffer for digesting tumour biopsy tissue (protein, UniProt P00784 134-345, looked up)
Papain: IPEYVDWRQKGAVTPVKNQGSCGSCWAFSAVVTIEGIIKIRTGNLNEYSEQELLDCDRRSYGCNGGYPWSALQLVAQYGIHYRNTYPYEGVQRYCRSREKGPYAAKTDGVRQVQPYNEGALLYSIANQPVSVVLEAAGKDFQLYRGGIFVGPCGNKVDHAVAAVGYGPNYILIKNSWGTGWGENGYIRIKRGTGNSYGVCGLYTSSFYPVKN

Tested on: primary breast cancer cells
Assay: Isolation of primary breast cancer cells from biopsy samples by digestion with collagenase II plus an additional enzyme (cell yield and viability)
Type: cell-based, human
Conditions: for Mean fold increase in cell number (collagenase II = 1): additional enzyme used in conjunction with 5 μg/ml collagenase II, 45 min at 37° C., compared to collagenase II alone
Description: A fresh primary breast cancer tumour biopsy sample (10-200 mg of tissue) was placed in 5 ml Hanks Balanced Salts (HBSS; Lonza, Germany; pH=7.5) on ice and it was transported immediately to the laboratory. The biopsy sample was weighed and then cut into 1 mm by 1 mm pieces using a scalpel in a BSL2 cabinet. The cut pieces were placed in 1 ml HBSS containing 5 μg/ml collagenase II (Ambion, USA) with or without 5 U/ml hyaluronidase, dispase II or papain (10 mg/ml) and the tissue was digested by incubation at 37° C. with rotation for 45 min. After the incubation time, a […] cell strainer (Becton Dickinson, USA) was placed into a 50 ml tube. The undigested material was pipetted up and down 10 times and then placed onto the cell strainer. The cell strainer was washed with 10 ml of HBSS and the cells were pelleted at 500×g for 5 min. The pelleted cells were then washed with an additional 10 ml of HBSS.
The pelleted cells were re-suspended in DMEM/F12 containing 10% human A/B serum (Western Province Blood Transfusion Services), 100 IU penicillin/streptomycin (Lonza, Germany), 0.1 mM sodium pyruvate (Lonza, Germany), […] (Sigma, Germany), […] (Sigma, Germany), 5 mM ethanolamine (Sigma, Germany), 5 μg/ml selenium (Sigma, Germany) and 10 nM estradiol (Sigma, Germany). The cells were then plated into a multi well plate or dish, which was dependent on the cell number. The breast cancer cells were incubated at 37° C. for 2 days and the medium was replaced with fresh medium without 10 nM estradiol, but with 100 nM cortisol (Sigma, Germany). The medium was replaced every 2 days with fresh medium containing half the concentration of cortisol used on the previous day. When the cells were confluent they were split using a standard procedure (trypsin) into a larger culture vessel.

| Molecule | Mean fold increase in cell number (collagenase II = 1) (breast biopsy samples) | Mean fold increase in cell number (collagenase II = 1) (breast biopsy samples, listed as hyaluronidase) [fold] | Mean cell viability (additional enzyme used in conjunction with collagenase II for cell isolation, breast biopsy samples (Table 1)) [%] | mean viability of the cells (enzyme used in conjunction with collagenase II, breast biopsy samples) [%] | Mean fold increase in cell number (collagenase II = 1) (breast biopsy samples, listed as papain) [fold] |
| --- | --- | --- | --- | --- | --- |
| Hyaluronidase | 2.7 (SD = 1.2-4.5) fold | 2.7 | 69 | 69 | – |
| B1 | 0.7 (SD = 0.4-0.9) fold | – | – | – | 0.7 |
